Assay [1] relates to MRSA LUH14616. Nature of the assay: In vitro killing assay on mid-log phase bacteria, MRSA LUH14616. The format is cell-based, Staphylococcus aureus. The note with it: for killing of MRSA LUH14616, in words: comparison among peptides tested, FIGS. 2-3. The source says:
(§1) The clinical isolate of methicillin-resistant Staphylococcus aureus (MRSA), LUH14616 was kindly provided by Dr. S. Croes, Maastricht University Medical Center, Maastricht, Netherlands (see S.B.M.C. Croes, Microbiol. 2009; 9:229. doi: 10.1186/1471-2180-9-229) and that of mupirocine-resistant MRSA LUH15051 was a gift from Dr. M.E.O.C. Heck (Laboratory for Infectious Diseases and Screening, National Institute for Public Health and Environment, RIVM, Bilthoven, Netherlands).
(§2) Bacteria were stored at -80° C. until use. Inoculi of mid-log phase bacteria were prepared by incubating isolated MRSA colonies from blood agar plates in Tryptic Soy Broth (TSB) medium (Becton Dickinson, Le Pont de Clax, France) for 2.5 hours and then diluted to the concentration needed.
(§3) For the in vitro killing assay on mid-log phase bacteria, MRSA LUH14616 and MRSA LUH15051 were resuspended to a concentration of 1×10^6 bacteria/ml in PBS. Subsequently, 200 μl was added to a concentration range of peptides LL-37, P60.4Ac (OP-145) and P10 that were lyophilized in advance. Subsequently, the bacteria-peptide mixture was incubated for 1 hour at 37° C. To establish the killing capacity of these peptides, the suspensions were serially diluted and plated onto DST agar plates to measure viable CFU counts. IC90, IC99 and IC99.9 values are calculated by linear regression analysis.

Assay [2] deals with MRSA LUH15051. Nature of the assay: In vitro killing assay on mid-log phase bacteria, mupirocine-resistant MRSA LUH15051. The format is cell-based, Staphylococcus aureus. The settings on record: compared with LL-37 and P60.4Ac.
Source text: as §1, §2, §3

Another assay relates to S. aureus JAR. Format: cell-based. The note with it: JAR, 2 h. The method, then: S. aureus JAR is described in Campoccia et al. (Int. J. Artif. Organs, 2008 September; 31(9):841-7).
For the in vitro killing assay with P10 variants, S. aureus JAR ([…] CFU/ml) were incubated for 2 hours at 37° C. with various concentrations of the peptides in PBS or in PBS/human plasma (1/1, v/v). […] The LC99.9 is the average value of two independent experiments.

Assay [3] deals with MRSA LUH14616. The assay is described as follows: Burn wound infection model, thermally wounded human skin equivalents, MRSA LUH14616. Format: cell-based, Staphylococcus aureus. The settings on record: compared with LL-37 and P60.4Ac, FIG. 4. The method, then:
(§4) Human skin equivalents were prepared as described in El Ghalbzouri et al. (Lab. Invest. 2004 January; 84(1):102-12). In brief, 5×10^5 normal human keratinocytes were seeded onto fibroblast-populated rat-tail collagen matrices. The collagen matrices were prepared in advance by making a basal (0.1% acetic acid, 4 mg/ml collagen, Hank's Balanced Salt Solution (HBSS, 10×), 1 M NaOH and FCS) and a top collagen layer in which normal human fibroblasts were seeded (4 mg/ml collagen, 10×HBSS, 1 M NaOH, FCS and fibroblasts). Transwell filters with 3 μm pore size (Corning 3414, Costar) were used to culture the human skin equivalents. The collagen matrices were cultured in fibroblast medium for a week. The full thickness human skin equivalents were first cultured submerged in keratinocyte medium for 2 or 3 days at 37° C. and 7.3% CO2 and were then cultured in keratinocyte medium as described above, but with 1% FCS and supplemented with […] L-serine, 10 mM L-carnitine, 1 μM DL-α-tocopherol-acetate, 50 μM ascorbic acid, a lipid supplement that contained palmitic acid, linoleic acid and arachidonic acid in a 1:1:1 ratio and 2.4×10^−5 M bovine serum albumin. […]

The subject of assay [4] is MRSA LUH15051. The assay is described as follows: Burn wound infection model, thermally wounded human skin equivalents, mupirocin-resistant MRSA LUH15051. The format is cell-based, Staphylococcus aureus. The settings on record: compared with LL-37 and P60.4Ac, FIG. 5. The method, then: as §4
Assay [5] relates to Staphylococcus epidermidis. Nature of the assay: Activity against Staphylococcus epidermidis. The format is cell-based.
For assay [6], the system named is (drug-resistant) Pseudomonas aeruginosa strains. Nature of the assay: Activity against Pseudomonas aeruginosa. The format is cell-based. The settings on record: various (drug-resistant) strains.
The subject of assay [7] is (drug-resistant) Acinetobacter baumannii strains. Nature of the assay: Activity against Acinetobacter baumannii. The format is cell-based.
A further assay deals with mycobacteria. The assay is described as follows: Activity against mycobacteria. Format: cell-based.
The subject of assay [8] is (fluconazole-resistant) Candida albicans. Nature of the assay: Activity against Candida albicans. The format is cell-based.
The subject of the next assay is Aspergillus niger. Nature of the assay: Activity against Aspergillus niger. The format is cell-based.
Assay [9] deals with methicillin-resistant S. aureus biofilm. Nature of the assay: Prevention of MRSA biofilm formation. The format is cell-based. The settings on record: on plastic as well as biotic (wounded 3-D human skin model) surfaces.
The test system of assay [10] is lipoteichoic acid (LTA), peptidoglycan (PG) and lipopolysaccharides (LPS). Nature of the assay: Endotoxin neutralization. The text has this: The term “anti-inflammatory activity” of a polypeptide as used herein refers to inhibiting, reducing or preventing an inflammatory response in a subject that has been infected by microbes, e.g., bacteria, viruses, fungi, and/or parasites. Anti-inflammatory activity of polypeptides of the disclosure is achieved by inhibiting, reducing or preventing the release of pro-inflammatory microbial compounds, such as lipoteichoic acid (LTA), peptidoglycan (PG) and/or lipopolysaccharides (LPS). Anti-inflammatory activity can be measured by methods known in the art. One example of such method is a lipopolysaccharide neutralization assay. In this method, a polypeptide of the disclosure is mixed with 1 mg of lipopolysaccharides and incubated for 60 minutes. Thereafter, these mixtures were added to 4 times diluted fresh human blood and 18 hours thereafter, the level of cytokines (1L-8, 1L-12p40) in the blood sample are measured by ELISA.

For the substance “Ac-LAREYKKIVEKLKRWLRQVLRTLR-NH2 (N-terminus and C-terminus assumed) [Peptide P10]”, the “activity compared with P60.4Ac” value with MRSA LUH14616 [1] (MRSA LUH14616, surviving bacteria at similar concentration) is given as “approximately 100 times”. This substance also displayed an IC99.9 in the assay on MRSA LUH14616 [1] (MRSA LUH14616 in PBS, 1 hour at 37° C., 99.9% Inhibitory Concentration, linear regression) of 0.59 µM. The “effectiveness against MRSA bacteria in log phase, stationary bacteria and bacteria residing in biofilms” value in the assay on MRSA LUH14616 [1] (MRSA, strain not stated) was “highly effective”. Further, in the assay on MRSA LUH14616 [1], the “killing of MRSA LUH14616, in words” value is given as “highest activity”. In addition, the “killing of MRSA LUH14616, in words” value in the assay on MRSA LUH14616 [1] (listed as Peptide 10) was “more effective than LL-37 and P60.4Ac”. Also, the “killing of mupirocine-resistant MRSA, in words” value with MRSA LUH15051 [2] was “more effective than LL-37 and P60.4Ac”. In the assay on S. aureus JAR, the “LC99.9 (μM) (50% plasma)” value was determined as 102.4 µM and the “LC99.9 (μM) (PBS)” value was 1.6 µM. Besides, the “eliminating MRSA from thermally wounded human skin equivalents, in words” value in the assay with MRSA LUH14616 [3] is “more effective than LL-37 and P60.4Ac”. The “eliminating mupirocine-resistant MRSA from thermally wounded human skin equivalents, in words” value in the assay on MRSA LUH15051 [4] was “more effective than LL-37 and P60.4Ac”. Also, the “effectiveness against Staphylococcus epidermidis” value in assay [5] is recorded as “highly effective”. Further, the “effectiveness against Pseudomonas aeruginosa” value in [6] is listed as “highly effective”. For the same substance, the “effectiveness against Acinetobacter baumannii” value in [7] is recorded as “highly effective”. For the same substance, the effectiveness against mycobacteria result in the assay on mycobacteria is given as “highly effective”. Besides, the “effectiveness against Candida albicans” value in assay [8] is given as “highly effective”. The “effectiveness against Aspergillus niger” value with Aspergillus niger was “highly effective”. In addition, in [9], the “prevention of MRSA biofilm formation” value is recorded as “able to prevent”. Moreover, the “neutralization of endotoxin LTA, PG and LPS” value in [10] is listed as “neutralizes”.

The record behind these values is US9562085B2, “Antimicrobial peptide” (priority 2013, dated 2017).
